Key:
Test in all cases: relative viability (nuclei count vs DMSO), 5 days (fraction); higher = more cells survive
XMD8-85 + Trametinib = compound: CN1CCN(CC1)C2=CC(=C(C=C2)NC3=NC=C4C(=N3)N(C5=CC=CC=C5C(=O)N4C)C)OC [XMD8-85] + CC(=O)Nc1cccc(-n2c(=O)n(C3CC3)c(=O)c3c(Nc4ccc(I)cc4F)n(C)c(=O)c(C)c32)c1 [Trametinib] (partner 0.02 µM)
Procedure, shortened: (§1)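 Lung cancer cell lines in 1536-well plates got either a single drug or a fixed anchor-drug dose together with five library-drug doses (not always all listed) in √10 steps, by pin tool, on the day after seeding. Nuclei were counted after 5 days, and relative viability is the treated-to-vehicle ratio of nuclei counts. Values are medians of duplicate plates.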

XMD8-85 + Pictilisib = compound: CN1CCN(CC1)C2=CC(=C(C=C2)NC3=NC=C4C(=N3)N(C5=CC=CC=C5C(=O)N4C)C)OC [XMD8-85] + CS(=O)(=O)N1CCN(Cc2cc3nc(-c4cccc5[nH]ncc45)nc(N4CCOCC4)c3s2)CC1 [Pictilisib] (partner 1 µM)
Procedure, shortened: as §1

XMD8-85 + AZD7762 = compound: CN1CCN(CC1)C2=CC(=C(C=C2)NC3=NC=C4C(=N3)N(C5=CC=CC=C5C(=O)N4C)C)OC [XMD8-85] + NC(=O)Nc1cc(-c2cccc(F)c2)sc1C(=O)N[C@H]1CCCNC1 [AZD7762] (partner 0.2 µM)
Procedure, shortened: as §1

4EGI-1 + Phenformin = compound: O=C(O)C(Cc1ccccc1[N+](=O)[O-])=NNc1nc(-c2ccc(Cl)c(Cl)c2)cs1 (mixture of isomers) [4EGI-1] + N=C(N)NC(=N)NCCc1ccccc1 [Phenformin] (partner 250 µM)
Procedure, shortened: as §1

| Cell Line | relative viability (XMD8-85 + Trametinib; first compound 0.08 µM) | relative viability (XMD8-85 + Trametinib; first compound 0.253 µM) | relative viability (XMD8-85 + Trametinib; first compound 0.8 µM) | relative viability (XMD8-85 + Trametinib; first compound 2.53 µM) | relative viability (XMD8-85 + Trametinib; first compound 8 µM) | relative viability (XMD8-85 + Pictilisib; first compound 0.08 µM) | relative viability (XMD8-85 + Pictilisib; first compound 0.253 µM) | relative viability (XMD8-85 + Pictilisib; first compound 0.8 µM) | relative viability (XMD8-85 + Pictilisib; first compound 2.53 µM) | relative viability (XMD8-85 + Pictilisib; first compound 8 µM) | relative viability (XMD8-85 + AZD7762; first compound 0.08 µM) | relative viability (XMD8-85 + AZD7762; first compound 0.253 µM) | relative viability (XMD8-85 + AZD7762; first compound 0.8 µM) | relative viability (XMD8-85 + AZD7762; first compound 2.53 µM) | relative viability (XMD8-85 + AZD7762; first compound 8 µM) | relative viability (4EGI-1 + Phenformin; first compound 0.5 µM) | relative viability (4EGI-1 + Phenformin; first compound 5 µM) | relative viability (4EGI-1 + Phenformin; first compound 15.81 µM) | relative viability (4EGI-1 + Phenformin; first compound 50 µM) | relative viability (4EGI-1 + Phenformin; first compound 1.581 µM) |
| --- | --- | --- | --- | --- | --- | --- | --- | --- | --- | --- | --- | --- | --- | --- | --- | --- | --- | --- | --- | --- |
| NCI-H838 | 0.529 | 0.48 | 0.516 | 0.617 | 0.334 | 0.423 | 0.455 | 0.503 | 0.429 | 0.317 | 0.972 | 0.987 | 0.915 | 0.856 | 0.868 | 0.605 | 0.623 | 0.487 | 0.153 | – |
| NCI-H1355 | 0.414 | 0.424 | 0.384 | 0.356 | 0.284 | 0.458 | 0.41 | 0.485 | 0.449 | 0.33 | 0.678 | 0.697 | 0.798 | 0.817 | – | 0.469 | 0.45 | 0.413 | 0.33 | 0.439 |
| NCI-H1395 | 0.832 | 1.08 | 0.995 | 1.04 | 0.829 | 0.699 | 0.649 | 0.634 | 0.613 | 0.484 | 0.382 | 0.393 | 0.395 | 0.418 | 0.35 | 0.455 | 0.508 | 0.399 | 0.34 | 0.362 |
| NCI-H1437 | 0.547 | 0.487 | 0.491 | 0.594 | 0.308 | 0.4 | 0.376 | 0.433 | 0.333 | 0.318 | 1.11 | 1.13 | 1.15 | 1.09 | 0.886 | 0.272 | 0.305 | 0.262 | 0.214 | 0.298 |
| NCI-H1651 | 0.842 | 0.886 | 0.739 | 0.76 | 0.716 | 0.527 | 0.454 | 0.584 | 0.534 | 0.44 | 0.46 | 0.431 | 0.47 | – | 0.433 | 0.345 | 0.35 | 0.267 | 0.231 | 0.295 |
| NCI-H1666 | 0.918 | 0.868 | 0.852 | 0.947 | 0.794 | 0.522 | 0.375 | 0.391 | 0.312 | 0.44 | 0.836 | 0.87 | – | 1.01 | 0.694 | 0.537 | 0.563 | 0.51 | 0.398 | 0.554 |
| NCI-H1734 | 0.654 | 0.712 | 0.704 | 0.604 | 0.519 | 0.45 | 0.397 | 0.477 | 0.502 | 0.475 | 0.562 | 0.534 | 0.529 | 0.626 | – | 0.477 | 0.43 | 0.352 | 0.256 | 0.341 |
| NCI-H1755 | 0.801 | 0.857 | 0.745 | 0.876 | 0.758 | 0.369 | 0.426 | 0.448 | 0.552 | 0.357 | 0.542 | 0.663 | 0.382 | 0.519 | 0.512 | 0.699 | 0.646 | 0.625 | 0.397 | 0.636 |
| NCI-H1793 | – | 0.483 | 0.37 | 0.481 | 0.442 | 0.389 | 0.248 | 0.44 | 0.405 | 0.38 | – | 0.408 | 0.483 | 0.344 | 0.413 | 0.375 | 0.418 | 0.367 | 0.297 | 0.47 |
| NCI-H1915 | 0.328 | 0.309 | 0.251 | 0.478 | 0.282 | 0.985 | 0.944 | 0.936 | 1.02 | 0.676 | 0.735 | 0.71 | 0.683 | – | 0.725 | 0.367 | 0.374 | 0.343 | 0.233 | 0.35 |
| NCI-H1944 | 0.388 | 0.453 | 0.462 | 0.462 | 0.369 | 0.326 | 0.332 | 0.351 | 0.333 | 0.307 | 0.585 | 0.585 | 0.475 | 0.543 | 0.462 | 0.206 | 0.207 | 0.185 | 0.191 | – |
| NCI-H1975 | 0.37 | 0.376 | 0.334 | 0.361 | 0.268 | 0.322 | 0.257 | 0.267 | 0.29 | 0.242 | 0.742 | 0.656 | 0.661 | 0.653 | 0.547 | 0.444 | 0.407 | 0.442 | 0.361 | 0.356 |
| NCI-H1993 | 0.484 | 0.436 | 0.537 | 0.494 | 0.381 | 0.859 | 0.795 | 0.822 | 0.701 | 0.814 | 0.772 | 0.716 | 0.959 | 0.844 | 0.818 | 0.536 | 0.481 | 0.631 | 0.5 | 0.452 |
| NCI-H2085 | 0.651 | 0.469 | 0.427 | 0.514 | 0.355 | 0.378 | 0.427 | 0.467 | 0.436 | 0.445 | 0.851 | 0.936 | 0.948 | 0.993 | 0.881 | 0.8 | 0.823 | 0.536 | 0.404 | 0.795 |
| NCI-H2087 | 0.17 | 0.203 | 0.19 | 0.19 | 0.172 | 0.924 | 0.723 | 0.961 | 0.83 | 0.542 | 1.42 | 1.25 | 1.39 | 1.23 | 0.96 | 0.498 | 0.435 | 0.394 | 0.193 | 0.468 |
| NCI-H2126 | 0.584 | 0.6 | 0.615 | 0.538 | 0.398 | 0.503 | 0.497 | 0.531 | 0.522 | 0.429 | 1.06 | 1.12 | 0.962 | 1.05 | 1.06 | 0.553 | 0.569 | 0.488 | 0.463 | – |
| NCI-H2170 | 0.848 | 0.845 | 1.03 | 1 | 0.702 | 0.26 | 0.341 | 0.335 | 0.305 | 0.289 | 0.784 | 0.937 | 0.92 | 0.918 | 0.759 | 0.419 | 0.426 | 0.333 | 0.274 | 0.452 |
| NCI-H2347 | 0.275 | 0.312 | 0.283 | 0.298 | 0.286 | 0.637 | 0.531 | 0.555 | 0.437 | 0.604 | 0.686 | – | 0.732 | – | 0.704 | 0.614 | 0.379 | 0.363 | 0.344 | – |
| NCI-H2405 | 0.572 | 0.597 | 0.637 | 0.647 | 0.628 | 0.388 | 0.528 | 0.402 | 0.373 | 0.303 | 0.636 | 0.741 | 0.73 | 0.708 | 0.467 | 0.419 | 0.421 | 0.409 | 0.409 | 0.338 |
| NCI-H3122 | 0.251 | 0.223 | 0.271 | 0.303 | 0.283 | 0.687 | 0.573 | 0.649 | 0.646 | 0.611 | 1.05 | 1.08 | 1.05 | 1.06 | 1.14 | 0.372 | 0.378 | 0.33 | 0.169 | – |
| PC-3 [JPC-3] | 0.672 | 0.83 | 0.75 | 0.717 | 0.599 | 0.717 | 0.666 | 0.766 | 0.879 | 0.672 | – | 0.782 | 0.82 | 0.712 | 0.411 | 0.484 | 0.476 | – | 0.431 | 0.486 |
| PC-14 | 0.733 | 0.703 | 0.756 | 0.6 | 0.306 | 0.618 | 0.521 | 0.661 | 0.681 | 0.462 | 0.352 | 0.364 | 0.34 | 0.394 | 0.18 | 0.614 | 0.792 | 0.188 | 0.232 | – |
| RERF-LC-KJ | 0.887 | 0.853 | 0.873 | 0.904 | 0.727 | 0.504 | 0.444 | 0.524 | 0.603 | 0.412 | 1.01 | 0.98 | 0.936 | 1.3 | 0.886 | 0.412 | 0.442 | 0.354 | 0.333 | – |

Reference: the supplement of paper PMC10307832
